Twelve compounds from PubChem BioAssay (NCI) can be followed below.

Structures are written as SMILES.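 Method: 48-hour compound exposure of cells in 96-well plates, five concentrations, linear interpolation of endpoints. GI50 marks 50% less growth. TGI marks complete inhibition of growth.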

Experiment in all cases: NCI anticancer screen, dose series, 48 h
Experiment [1] relates to MDA-MB-435.
For experiment [2], the system named is T-47D breast.
Experiment [3] has as its system M14 melanoma.
Experiment [4] has as its system NCI-H23 lung.
For experiment [5], the system named is IGROV1 ovarian.
Experiment [6] concerns HS 578T breast.

As for `CS(=O)(=O)CCNCc1ccc(-c2ccc3ncnc(Nc4ccc(OCc5cccc(F)c5)c(C(F)(F)F)c4)c3c2)o1`, the GI50 in experiment [1] is 4.01 µM; in experiment [2] it was 3.4 µM; in experiment [3] it was 4.36 µM; in experiment [4], 3.88 µM; in experiment [5], 4.56 µM; in experiment [6], 3.88 µM. The TGI in experiment [1] was found to be 7.68 µM; in experiment [2], 7.74 µM; in experiment [3] it was 8.67 µM; in experiment [4], 8.51 µM; in experiment [5], 13.5 µM; in experiment [6], 13.5 µM.

Regarding `O=[N+]([O-])/C=C/c1cc2ccccc2[nH]1`, the TGI turned out to be 6.95 µM in experiment [1]; 33.9 µM in experiment [2]; 28.5 µM in experiment [3]; 30.2 µM in experiment [4]; 26.3 µM in experiment [5]; 50 µM in experiment [6].

Take `CN1CCN(c2ccc(Nc3nc(N)c(C(=O)c4ccc5c(c4)OCCO5)s3)cc2)CC1`: the GI50 in experiment [1] is 3.44 µM; in experiment [2] it was 3.69 µM; in experiment [3], 3.99 µM; in experiment [4] it was 3.69 µM; in experiment [5] it was 2.27 µM; in experiment [6], 2.32 µM. Besides, the TGI was 12.2 µM in experiment [1]; 9.7 µM in experiment [2]; greater than 18.1 µM in experiment [3]; 11.3 µM in experiment [4]; 9.27 µM in experiment [5]; 12.2 µM in experiment [6].

With `CC(C)CC(=O)Nc1n[nH]c2c1CN(C(=O)C1CCN(C)CC1)C2(C)C`, the GI50 in experiment [1] was 1.41 µM; in experiment [2] it was 1.59 µM; in experiment [3], 2.24 µM; in experiment [4], 0.352 µM; in experiment [5] it was 0.579 µM; in experiment [6], 0.712 µM. In addition, the TGI is greater than 10 µM in experiment [1]; 9.54 µM in experiment [2]; greater than 10 µM in experiment [3]; 5.4 µM in experiment [4]; greater than 10 µM in experiment [5]; greater than 10 µM in experiment [6].

For `Nc1nc2cc3ccc(C4CC(O)C(CO)O4)cc3cc2c(=O)[nH]1` (configuration not stated), the GI50 in experiment [1], in experiment [2], in experiment [3], in experiment [4], in experiment [5] and in experiment [6] was greater than 100 µM in each case. In addition, the TGI in experiment [1], in experiment [2], in experiment [3], in experiment [4], in experiment [5] and in experiment [6] was greater than 100 µM each time.

Turning to `Cc1[nH]c2ccccc2c1-c1cc(-c2cc(-c3c(C)[nH]c4ccccc34)nc(N)n2)nc(N)n1`, the TGI in experiment [1], in experiment [2], in experiment [3], in experiment [4], in experiment [5] and in experiment [6] was greater than 100 µM each time.

Regarding `COc1cc2c3c(n(CCCNCCCNCCCNCCCN)c(=O)c2cc1OC)-c1cc2c(cc1C3=O)OCO2`, the GI50 in experiment [1] is 1.45 µM; in experiment [2] it was 2.36 µM; in experiment [3] it was 2.84 µM; in experiment [4], 1.5 µM; in experiment [5], 3.72 µM; in experiment [6], 2.78 µM. Besides, the TGI in experiment [1] is 3.18 µM; in experiment [2], greater than 100 µM; in experiment [3] it was 14.2 µM; in experiment [4], 3.86 µM; in experiment [5], greater than 100 µM; in experiment [6], 8.42 µM.

`CS(=O)(=O)Nc1cccc(-c2cc(-c3ccccc3Cl)c(C#N)c(N)n2)c1`: the GI50 was 0.165 µM in experiment [1]; 0.695 µM in experiment [2]; 0.464 µM in experiment [3]; 0.651 µM in experiment [4]; 0.769 µM in experiment [5]; 0.321 µM in experiment [6]. In addition, the TGI in experiment [1] turned out to be 1.76 µM; in experiment [2], 14.6 µM; in experiment [3], 14.6 µM; in experiment [4], 19.5 µM; in experiment [5], 22.6 µM; in experiment [6], 6.62 µM.

With `C[C@@H]1Cc2c([nH]c3ccccc23)[C@@H](c2c(F)cc(NC3CN(CCCF)C3)cc2F)N1CC(F)(F)CO`, the GI50 was 3.89 µM in experiment [1]; 1.06 µM in experiment [2]; 1.87 µM in experiment [3]; 11.9 µM in experiment [4]; 2.77 µM in experiment [5]; 3.73 µM in experiment [6]. Also, the TGI in experiment [1] turned out to be 15.1 µM; in experiment [2], 18.5 µM; in experiment [3] it was 3.84 µM; in experiment [4], 25.6 µM; in experiment [5], 10.8 µM; in experiment [6], 19.1 µM.

Consider `O=C(Nc1ccccc1O)c1ccc(CNc2ccnc(C(F)(F)F)c2)cc1`, for which the GI50 is 3.47 µM in experiment [1]; 2.5 µM in experiment [2]; 3.86 µM in experiment [3]; 4.72 µM in experiment [4]; 7.64 µM in experiment [5]; 2.59 µM in experiment [6]. Besides, the TGI in experiment [1] is 20.9 µM; in experiment [2] it was 24.8 µM; in experiment [3], 38 µM; in experiment [4] it was 81.4 µM; in experiment [5], 32.9 µM; in experiment [6] it was 32.9 µM.

With `CCn1cc(-c2ccnc3[nH]ccc23)c(-c2cccc(NC(=O)Nc3ccc(OCc4ccccc4)cc3)c2)n1`, the GI50 is 11 µM in experiment [1]; 6.65 µM in experiment [2]; 14.4 µM in experiment [3]; 16.5 µM in experiment [4]; 18.1 µM in experiment [5]; 4.85 µM in experiment [6]. The TGI in experiment [1], in experiment [2], in experiment [3], in experiment [4], in experiment [5] and in experiment [6] was greater than 25 µM each time.

In the case of `CN(C)c1ncc(-c2ccc(C(F)(F)F)cc2)c(NC2CCCCCC2)n1`, the GI50 was 24.8 µM in experiment [1]; 25 µM in experiment [2]; 24 µM in experiment [3]; 17.3 µM in experiment [4]; 32.5 µM in experiment [5]; 23.1 µM in experiment [6]. Also, the TGI in experiment [1] is greater than 100 µM; in experiment [2], greater than 100 µM; in experiment [3], greater than 100 µM; in experiment [4], 57.3 µM; in experiment [5] it was greater than 100 µM; in experiment [6] it was greater than 100 µM.
